Experimental data published in paper PMC9933611 (2023).

Assays:
[1] = system: Re-engineered ATP-binding aptamer, 4-nt poly-T linker (DNA, aptamer) ACCTGGGGGAGTATTTTTTGCGGAGGAAGGA; assay: fluorescence melting (AF488/BHQ-1); conditions: 10 mM Mg2+; 100 mM Tris HCl, pH 6.5; 3 mM ATP, 50 nM aptamer; temperature of 50% ligand release, not a shift
[2] = system: Re-engineered ATP-binding aptamer, 70-nt poly-T linker (DNA, aptamer) ACCTGGGGGAGTATTTTTTTTTTTTTTTTTTTTTTTTTTTTTTTTTTTTTTTTTTTTTTTTTTTTTTTTTTTTTTTTTTTTTTTTGCGGAGGAAGGA; assay: fluorescence melting (AF488/BHQ-1); conditions: 10 mM Mg2+; 100 mM Tris HCl, pH 6.5; 3 mM ATP, 50 nM aptamer; temperature of 50% ligand release, not a shift

T50% [1]: 59.0 ± 0.5 °C
T50% [2]: 43.2 ± 0.5 °C
Structure (SMILES): Nc1ncnc2c1ncn2[C@@H]1O[C@H](COP(=O)(O)OP(=O)(O)OP(=O)(O)O)[C@@H](O)[C@H]1O
